Test results from patent US8637237B2, “Methods, compositions, and systems for the identification of species-specific or developmental stage-specific insecticides” (The University of North Carolina at Greensboro, priority 2003, dated 2014).

Molecular target: T1, GRdEcR/RXR (Drosophila melanogaster, UniProt P34021, E261P/P331L/Q260P/V259R)
T1 construct: ligation of a Not I-Bam HI fragment containing the DBD and LBD of a modified EcR cDNA, EcRnx; expressed in transfected cells; host or cells: CHO
T1 sequence (P34021 259-878 V259R/Q260P/E261P/P331L limits assumed): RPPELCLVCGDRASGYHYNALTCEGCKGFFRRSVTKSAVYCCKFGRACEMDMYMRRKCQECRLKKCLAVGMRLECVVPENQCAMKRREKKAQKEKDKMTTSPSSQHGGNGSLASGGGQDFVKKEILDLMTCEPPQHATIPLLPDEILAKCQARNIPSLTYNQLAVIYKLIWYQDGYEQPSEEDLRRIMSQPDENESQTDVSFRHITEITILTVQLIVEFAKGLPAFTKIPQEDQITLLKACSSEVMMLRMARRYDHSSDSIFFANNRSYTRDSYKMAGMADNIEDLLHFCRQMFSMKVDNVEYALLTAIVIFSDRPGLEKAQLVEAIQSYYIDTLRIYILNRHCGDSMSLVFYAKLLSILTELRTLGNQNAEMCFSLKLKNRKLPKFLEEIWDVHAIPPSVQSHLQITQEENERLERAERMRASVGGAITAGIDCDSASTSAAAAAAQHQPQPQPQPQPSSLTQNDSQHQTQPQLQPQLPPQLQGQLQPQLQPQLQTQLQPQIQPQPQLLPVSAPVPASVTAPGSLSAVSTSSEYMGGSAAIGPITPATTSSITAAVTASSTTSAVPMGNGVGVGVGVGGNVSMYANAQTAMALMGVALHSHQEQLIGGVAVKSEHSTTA
T1 sequence (P28700 1-467 partner): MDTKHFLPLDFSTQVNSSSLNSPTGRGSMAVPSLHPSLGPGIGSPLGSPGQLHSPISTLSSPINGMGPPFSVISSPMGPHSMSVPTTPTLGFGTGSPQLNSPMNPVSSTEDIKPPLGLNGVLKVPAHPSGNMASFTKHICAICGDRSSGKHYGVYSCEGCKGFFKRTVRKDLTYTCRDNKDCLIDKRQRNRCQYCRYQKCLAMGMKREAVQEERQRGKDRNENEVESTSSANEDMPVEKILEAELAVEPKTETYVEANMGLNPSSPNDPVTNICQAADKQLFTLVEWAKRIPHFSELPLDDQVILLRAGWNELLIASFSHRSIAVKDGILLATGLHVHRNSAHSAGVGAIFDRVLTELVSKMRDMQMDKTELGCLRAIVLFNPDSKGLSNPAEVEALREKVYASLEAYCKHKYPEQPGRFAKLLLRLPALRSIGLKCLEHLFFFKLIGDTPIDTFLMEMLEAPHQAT
Assay: GRdEcR (GEcEc) chimera with RXR, (EcRE)5-ΔMTV reporter in CHO cells
Format: cell-based
Protocol: These experiments employed a mammalian cell culture system using Chinese hamster ovary cells (CHO) to evaluate the transcriptional function of Drosophila melanogaster EcR and USP using methods described previously (U.S. Patent Application Publication No: 2005/0049230; Henrich et al, 2003). Cells were seeded in 6-well polypropylene culture plates (Falcon) with 10^5 cells per well on the day prior to transfection. Transfection was subsequently performed using either calcium phosphate (Kitareewan et al., 1996, Mol. Biol. Cell, 7:1153-1196) or a GenePorter reagent (Gene Therapy Systems, Inc; San Diego, Calif.) following manufacturer's protocols. Each well received 1.25 μg of (EcRE)5-ΔMTV-CAT (five copies of the hsp27 EcRE inserted into an mouse mammary tumor virus (MTV) promoter upstream of the chloramphenicol acetyltransferase (CAT) gene) or (EcRE)5-ΔMTV-LUC (the same promoter attached to firefly luciferase), 1.25 μg of pCH111 (SV40 early promoter linked to the β-galactosidase gene) to normalize CAT activity, and 0.25 μg of each expression plasmid (EcR, FXR, RXR, USP) that was tested. The cells were incubated with plasmid DNA for seven hours and then washed with 1×PBS. Muristerone A (murA; Alexis Biochemicals) or 20-hydroxyecdysone (20E; Sigma) dissolved in ethanol to a concentration of 10 mM was diluted as necessary to the final assay concentration (FAC) in 2 ml of fresh incubation medium that was then applied to the cells. Similarly, JHIII (Sigma) was dissolved in dimethyl sulfoxide (DMSO) to a concentration of […] and diluted into the incubation medium to its final assay concentration (20, 40, 80, 160 μM). […] A corresponding volume of ethanol and DMSO were added to control cells for all experiments. For all experiments, the cells were allowed to incubate with the medium for 24 hours before collection and cell lysates were prepared by described methods (Kitareewan et al., 1996). Both β-galactosidase and CAT reporter activity were measured based on previously used methods (Kitareewan et al, 1996). Luciferase assays using luciferrin followed the specifications of the manufacturer.
Transcriptional activity, measured as ^14C-chloramphenicol counts (for measuring CAT activity) or relative luciferase activity (RLU) was quantified for each cell lysate. The counts were then normalized by adjusting for differences in β-galactosidase activity, since β-galactosidase expression is controlled by a constitutive promoter and provides an estimate of cell mass. Data were normalized as fold-induction based on differences in reporter gene activity between hormonally treated and control cells.
In an initial series of studies, a GRdEcR chimera that consists of the rat glucocorticoid receptor (GR) activation domain attached to the EcR DBD and LBD (FIG. 1) was cotransfected along with mRXRα into CHO cells. The response of transfected cells to murA was measured using a (EcRE)5-ΔMTV-CAT reporter plasmid that carries five tandem repeats of the hsp27 EcRE linked to the MTV (mouse mammary tumor virus) promoter and the chloramphenicol acetyltransferase gene (CAT).
The prominent candidate for this JH-responsive macromolecule in insects is the structurally-related ecdysone receptor (EcR). Like FXR, EcR heterodimerizes with RXR and binds to the hsp27 ecdysone-responsive DNA element (Forman et al., 1995), but distinctively activates transcription in response to muristerone A (MurA or MUR), a synthetic ecdysone (Yao et al., 1992). […] In the experiments shown in FIG. 15A, muristerone A (MUR) was added at the indicated doses in ethanol vehicle, and increasing amounts of JH III (12, 25, or 50 μM) were added (underlying triangles). Numbers over bars indicate the ratio of the GEcEc-dependent activity produced by 50 μM JH III in the presence of the indicated dose of MUR to the activity produced by MUR alone. Relative light units (RLU) from firefly luciferase in cell lysates are expressed relative to renilla luciferase (Promega).

With `COC(=O)/C=C(\C)CC/C=C(\C)CC[C@H]1OC1(C)C` [JHIII, juvenile hormone III] the “increase of MurA-induced GEcEc-dependent activity by JH III” value (80 μM JH III added to MurA) was 3 times, the “response of GEcEc to JH III alone” value (80 μM JH III, no MurA) was “failed to respond” and the “potentiation of murA response by JHIII” value (20, 40, 80, 160 μM JHIII at submaximal murA (0.1 μM and 1 μM)) was “potentiated the response of murA in a dose-dependent manner”. The “MurA + JHIII (JHIII potentiation)” value (GRdEcR/RXR, 0.1 μM murA + 80 μM JHIII) was “+ ((+) indicates observed potentiation that exceeds 2-fold above the levels observed with ecdysteroid alone)” and the “effect of JHIII alone on transcription” value (no murA) was “did not show an effect”.

With `CC(C)CC[C@@H](O)[C@](C)(O)[C@H]1CC[C@@]2(O)C3=CC(=O)[C@]4(O)C[C@@H](O)[C@@H](O)C[C@]4(C)[C@H]3[C@H](O)C[C@]12C` [murA, muristerone A] the “lowest murA dosage evoking a detectable response” value (GRdEcR + RXR, CAT reporter) was 0.1 µM and the “MurA (inducibility)” value (GRdEcR/RXR, 0.1 μM murA) was “+ ((+) designates a change in transcriptional level that exceeds 2.5-fold)”.

With juvocimene the “potentiation of MUR-inducible GEcEc-dependent activity” value (25 μM test compound, 0.2 μM muristerone A) was “between two and four times”.
